Measured values from patent US20120130150A1, “APPARATUS AND METHOD OF TREATMENT UTILIZING A VARYING ELECTROMAGNETIC ENERGIZATION PROFILE” (International Scientific Pty Ltd., priority 2009, published 2012).
Counter-ions that a name gives are not always drawn. Each block holds one molecule with its values, some of them ahead of it.

Key:
Assay type in all cases: in vitro ADME
[1] = Franz-type diffusion of 5-aminolevulinic acid through human epidermis; settings: at 4 h; 2% w/v solution in PBS pH 7.4; with Dermaportation only (0-4 h)
Method: Overview: ALA solution was applied to the surface of human epidermis for a contact period of up to 4 h. Dermaportation applied continuously from 0 to 4 h was compared to passive diffusion. ALA penetrating the epidermis would diffuse into a receptor fluid of phosphate buffered saline (pH 7.4: PBS). The receptor fluid was analysed for ALA content by high performance liquid chromatography (HPLC).
In vitro epidermal penetration: Human skin was obtained following abdominoplasty surgery under existing approval from the Human Research Ethics Committee of Curtin University. Skin from a donor was used in this study. The epidermis was heat separated from the dermis using standard procedures (Kligman and Christophers 1963). The epidermis was mounted in Franz-type diffusion cells with the stratum corneum facing the donor compartment. Skin integrity was determined by conductance measurement.
The receptor compartment was filled with phosphate buffered saline pH 7.4, stirred continuously and maintained at 37° C. throughout the experiment. ALA solution (2% w/v of ALA in phosphate buffered saline pH 7.4) was applied to the donor side of the epidermis. Dermaportation (cycle 2) was applied from time 0 to 4 h. […] The content of ALA in receptor fluid samples was analysed by HPLC with ultraviolet detection using a validated assay procedure. […]

[2] = Franz-type diffusion of Voltaren Emulgel diclofenac through human epidermis, Dermaportation vs passive; settings: for flux (skin penetration): PBS receptor, 37° C.; for cumulative amount penetrated: at 8 h
Method: Human epidermis was mounted in vertical Franz type diffusion cells (stratum corneum facing up), according to the method of Kligman and Christophers (1963). Voltaren Emulgel® (1 g containing 1.16% diclofenac diethylammonium salt; Novartis) was applied to the donor compartment of diffusion cells, with PBS in the receptor compartment (3.0 mL; stirred continuously; 37° C.). Dermaportation coils were placed around the exterior of 4 cells, with 4 additional cells without coils (passive control). Dermaportation energy was applied from time 30-60 min. Samples of the receptor solution were removed and replaced with fresh buffer over an 8 h period. All samples were analysed for diclofenac content by HPLC with UV detection by a validated method. The cumulative amount of diclofenac in receptor versus time was plotted and flux values calculated from the slopes per group. Statistical analyses used a t-test on the delta scores from the zero time point to the time point in question.

[3] = Franz-type diffusion of hydrocortisone through human epidermis, Dermaportation vs passive; settings: for flux (skin penetration): saturated solution in 20:80 ethanol:PBS pH 7.4; for cumulative amount penetrated: at 30 min
Method: (§1) Human skin was obtained following abdominoplasty surgery under existing approval from the Human Research Ethics Committee of Curtin University.
(§2) The epidermis was heat separated from the dermis using standard procedures (Kligman and Christophers 1963). The epidermis was mounted in Franz-type diffusion cells with the stratum corneum facing the donor compartment. Skin integrity was determined by conductance measurement. The receptor compartment was filled with 20:80 ethanol:phosphate buffered saline pH 7.4, stirred continuously and maintained at 37° C. throughout the experiment. Hydrocortisone solution (1 mL of saturated solution in 20:80 ethanol:phosphate buffered saline pH 7.4; solubility approx 1 mg/mL) was applied to the donor side of the epidermis.
(§3) Dermaportation was applied from time 0 to 4 h. Samples were removed from the receptor fluid at time points up to 4 h. At each time point the receptor fluid volume was replaced with fresh receptor solution preheated to 37° C. Four Dermaportation cells and three passive cells (no Dermaportation) were conducted using skin from the abdominal region of a donor. The content of hydrocortisone in receptor fluid samples was analysed by HPLC with ultraviolet detection using a validated assay procedure.
The cumulative amount of hydrocortisone in receptor versus time was plotted and flux values calculated from the slopes per group.

[4] = Franz-type diffusion of naltrexone through human epidermis, Dermaportation vs passive; settings: for flux0-2h (skin penetration): 0.5% w/v in PBS pH 7.4
Method: as §1
as §2, with “phosphate” for “20:80 ethanol:phosphate”, “Naltrexone (0.5% w/v)” for “Hydrocortisone solution (1 mL of saturated solution”, “(pH 7.4)” for “pH 7.4; solubility approx 1 mg/mL)”
as §3, with “up to 8 h. At” for “up to 4 h. At”, “cells and 4 passive cells” for “cells and three passive cells”, “content of naltrexone in receptor” for “content of hydrocortisone in receptor”
The cumulative amount of naltrexone in receptor versus time was plotted and flux values calculated from the slopes per group.

applied dose penetrated to the receptor [1]: approximately 40%
Compound: NCC(=O)CCC(=O)O [ALA, 5-aminolevulinic acid]

flux (skin penetration) ([2]; Dermaportation applied 30-60 min, Voltaren Emulgel 1 g (1.16% diclofenac diethylammonium salt)): 2.97 µg/h
cumulative amount penetrated ([2]; Dermaportation applied 30-60 min): 14.25 µg
cumulative amount penetrated ([2]; passive diffusion): 7.59 µg
flux (skin penetration) ([2]; passive administration, Voltaren Emulgel 1 g): 1.58 µg/h
Compound: O=C(O)Cc1ccccc1Nc1c(Cl)cccc1Cl [diclofenac, diclofenac diethylammonium salt]
diffusion level versus zero time point (t-test delta score) ([2]; passive diffusion, any time point up to 8 h): did not reach diffusion levels different from 0

flux (skin penetration) ([3]; Dermaportation 0-4 h): 2.44 μg/cm^2/h
cumulative amount penetrated ([3]; Dermaportation): 93.22 µg
cumulative amount penetrated ([3]; passive diffusion): 2.51 µg
flux (skin penetration) ([3]; passive administration): 0.08 μg/cm^2/h
Compound: C[C@]12CCC(=O)C=C1CC[C@@H]1[C@@H]2[C@@H](O)C[C@@]2(C)[C@H]1CC[C@]2(O)C(=O)CO [hydrocortisone, Hydrocortisone]

Compound: O=C1CC[C@@]2(O)[C@H]3Cc4ccc(O)c5c4[C@@]2(CCN3CC2CC2)[C@H]1O5 [naltrexone, Naltrexone]
flux0-2h (skin penetration) ([4]; Dermaportation 0-4 h): 152.6 μg/cm^2/h
diffusion with Dermaportation compared with passive administration ([4]; Dermaportation for 240 min, Time by Treat interaction p<0.05): diffused faster and in more quantity
flux0-2h (skin penetration) ([4]; passive administration): 1.6 μg/cm^2/h
